Tests used:
[1] = target: T1, Peroxisome proliferator-activated receptor gamma (Homo sapiens, UniProt P37231)
T1 sequence (P37231 whole entry): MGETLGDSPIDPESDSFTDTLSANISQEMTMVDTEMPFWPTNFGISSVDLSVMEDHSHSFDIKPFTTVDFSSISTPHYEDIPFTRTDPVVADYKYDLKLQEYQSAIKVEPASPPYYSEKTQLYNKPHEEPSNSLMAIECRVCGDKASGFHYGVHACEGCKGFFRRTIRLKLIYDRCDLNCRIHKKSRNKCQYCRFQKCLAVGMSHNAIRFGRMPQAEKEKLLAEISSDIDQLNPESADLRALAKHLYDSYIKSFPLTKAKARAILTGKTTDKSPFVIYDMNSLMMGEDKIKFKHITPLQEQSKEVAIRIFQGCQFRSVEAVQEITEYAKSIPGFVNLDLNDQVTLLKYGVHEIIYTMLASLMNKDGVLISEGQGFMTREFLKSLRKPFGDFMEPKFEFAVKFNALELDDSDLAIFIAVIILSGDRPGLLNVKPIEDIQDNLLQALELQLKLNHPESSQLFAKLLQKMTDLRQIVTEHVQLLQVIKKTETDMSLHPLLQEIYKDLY

[2] = target: T2, Peroxisome proliferator-activated receptor alpha (Homo sapiens, UniProt Q07869); experiment: In vitro effective concentration against human peroxisome proliferator activated receptor alpha/Gal4 in transactivation assay
T2 sequence (Q07869 whole entry): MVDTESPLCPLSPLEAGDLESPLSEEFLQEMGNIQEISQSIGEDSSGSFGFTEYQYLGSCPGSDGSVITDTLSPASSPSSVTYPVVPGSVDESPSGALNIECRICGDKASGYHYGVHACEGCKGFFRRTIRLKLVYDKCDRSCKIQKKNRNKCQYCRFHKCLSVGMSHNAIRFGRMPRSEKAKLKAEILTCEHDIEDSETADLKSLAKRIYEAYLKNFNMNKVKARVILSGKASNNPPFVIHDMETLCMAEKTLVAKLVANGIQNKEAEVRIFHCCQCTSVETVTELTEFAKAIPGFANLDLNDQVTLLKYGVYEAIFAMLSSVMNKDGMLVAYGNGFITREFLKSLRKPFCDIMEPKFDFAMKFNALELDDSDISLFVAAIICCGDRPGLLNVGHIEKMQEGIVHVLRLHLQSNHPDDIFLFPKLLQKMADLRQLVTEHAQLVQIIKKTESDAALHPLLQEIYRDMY

[3] = target: T1, Peroxisome proliferator-activated receptor gamma; experiment: In vitro effective concentration against human peroxisome proliferator activated receptor gamma/Gal4 in cell-based transactivation assay; format: functional

Structure (SMILES)	Ki [1] [nM]	EC50 [2] [nM]	EC50 [3] [nM]
CCCCCOc1ncccc1C(O)CCCCCCC(=O)O (stereo unspecified)	> 10000	> 10000	> 10000
CCCCCOc1ccccc1C(O)CCCCCCC(=O)OC (stereo unspecified)	515	> 10000	> 10000
CCCCCOc1ccccc1C(O)CC=CCCCC(=O)OC (stereo unspecified)	3760	> 10000	28
CCCCCOc1cc2ccccc2cc1C(O)C/C=C/CCCC(=O)OC (stereo unspecified)	718	1450	> 10000
CCCCCOc1nc2ccccc2cc1C(O)CC#CCCCC(=O)O (stereo unspecified)	947	114	617
CCCCCOc1cc2ccccc2cc1C(O)CCCCCCC(=O)O (stereo unspecified)	969	1480	> 10000
CCCCCOc1cc2ccccc2cc1C(O)CC=CCCCC(=O)O (stereo unspecified)	1030	1190	1500
CCCCCOc1nc2ccccc2cc1C(O)CCCCCCCC(=O)OC (stereo unspecified)	> 10000	> 10000	> 10000
CCCCCOc1ncccc1C(O)C/C=C/CCCC(=O)OC (stereo unspecified)	> 10000	> 10000	> 10000
CCCCCOc1nc2ccccc2cc1C(O)CC=CCCCC(=O)O (stereo unspecified)	> 10000	1090	1200
CCCCCOc1ccccc1C(O)CC#CCCCC(=O)OC (stereo unspecified)	1050	173	642
CCCCCOc1nc2ccccc2cc1C(O)CC=CCCCC(=O)OC (stereo unspecified)	1330	1300	1550
CCCCCOc1ccccc1C(O)CC#CCCCC(=O)O (stereo unspecified)	> 10000	> 10000	> 10000
CCCCCOc1ccccc1C(O)CC=CCCCC(=O)O (stereo unspecified)	> 10000	> 10000	340
CCCCCOc1ncccc1C(O)C/C=C/CCCC(=O)O (stereo unspecified)	> 10000	> 10000	> 10000
CCCCCOc1nc2ccccc2cc1C(O)CCCCCC(=O)O (stereo unspecified)	2860	1400	1570
CCCCCOc1cc2ccccc2cc1C(O)CC#CCCCC(=O)O (stereo unspecified)	4390		> 10000
CCCCCOc1ncccc1C(O)CC#CCCCC(=O)OC (stereo unspecified)	> 10000	1630	549
CCCCCOc1ncccc1C(O)CC#CCCCC(=O)O (stereo unspecified)	> 10000	1540	> 10000
CCCCCOc1nc2ccccc2cc1C(O)CC#CCCCC(=O)OC (stereo unspecified)	> 10000	262	1410
CCCCCOc1cc2ccccc2cc1C(O)CC#CCCCC(=O)OC (stereo unspecified)	695	1140	> 10000
CCCCCOc1ncccc1C(O)CCCCCCC(=O)OC (stereo unspecified)	> 10000	> 10000	> 10000
CCCCCOc1ccccc1C(O)CCCCCCC(=O)O (stereo unspecified)	6690	> 10000	> 10000
CCCCCOc1cc2ccccc2cc1C(O)CCCCCCCC(=O)OC (stereo unspecified)	579	1530	1360
